Data set [1] relates to Male Sprague Dawley (SD) rats. Description: In vivo assay of mechanical nociception (rat pinch model, perisciatic injection). The note with it: perisciatic.
For data set [2], the system named is rats. The data set can be described thus: Cutaneous anesthetic activity, cutaneous trunci muscle reflex (CTMR) pin-prick model. In kind it is in vivo, rat. On the procedure: Rats were subjected to several days of acclimatization to the environment and the investigator prior to entering the study. About 24 hours before each experiment, the skin on the back of male rats was shaved using electronic clippers. The anesthetic action of test agents, following subcutaneous injection was determined using a “pin-prick” method as described by Khan (Khan et al., Anesthesiology, January 2002, 96(1): 109-116). Injection volumes were standardized at 100 μL, each injection caused a small wheal to develop—the boundary of which was marked with ink. The cutaneous trunci muscle reflex (CTMR) is a reflex movement of the skin due to twitches of the lateral thoracospinal muscles elicited by noxious stimulation of the dorsal cutaneous area. An 18-guage needle was used as the noxious stimulus; six stimuli were presented to an area of ‘normal’ skin to determine baseline sensitivity and this was then repeated in the area of the wheal. […] Data were represented as % maximal possible effect (MPE) where 100% indicates complete lack of response to each of the six needle presentations in the injected area. The extent of local anesthesia was assessed at regular intervals in order to generate efficacy-duration time plots.

The subject of data set [3] is rats. Description: Sciatic function assay (foot print score, motor function). Type of data set: in vivo, rat. The settings on record: 200 μL of 0.2% with 2% lidocaine. The text has this: The sciatic function test is a simple observational gait analysis that provides a rudimentary assessment of hind-limb motor function according to a predetermined scoring scale based on a visual inspection of the animals foot prints as it ambulates on a flat surface (the basic principles of this test are provided in Lowdon (Journal of Neuroscience Methods 24(3), 1988, 279-281)). Following the injection of a test substance(s), the animal's hind paws are inked and it is then placed on a flat paper surface and permitted to ambulate freely. The footprint pattern left by the inked footpads on the paper is inspected and assigned a ‘foot print score’ based on a subjective assessment. […] A footprint score of 1-3 reflected that the weight bearing was primarily on the knees, that the ankle and toes were used sparingly, the toes were curled, and or the plantar surface of the paw is uplifted in a concave fashion. A footprint score of 4-6 reflects that the weight bearing is primarily on the knees and angle, with very little weight bearing on the toes. A footprint score of 6-10 reflects that the weight bearing is distributed over the knee, ankle, and toes and that there is an occasional sparing of the knee joints.

Data set [4] concerns sodium channel in hTRPV1-N1E115 cells. The data set can be described thus: FLIPR membrane potential assay of sodium channel response in hTRPV1-N1E115 cells, with (47° C.) or without (25° C.) heat activation of hTRPV1. The settings on record: for hTRPV1-N1E Nav 0.1 mM (% inhibition) 25° C. / hTRPV1-N1E Nav 1 mM (% inhibition) 25° C.: 25° C. (no heat activation of hTRPV1); for IC50 / hTRPV1-N1E Nav (% inhibition) 47° C., tested at 0.5 mM: 47° C.; for IC50: read-out: hTRPV1-N1E IC50 (μM) 47° C.; for hTRPV1-N1E Nav (% inhibition) 25° C., tested at 0.5 mM / hTRPV1-N1E Nav (% inhibition) 47° C., tested at 0.5 mM: 0.5 mM (stated in cell, column head 0.1 mM). In kind it is cell-based. The method, boiled down: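 hTRPV1-N1E115 cells were loaded with membrane potential blue dye, and compound was added. Duplicate plates were either heated to 47 °C for 10 min then held 30 min at ~25 °C, or kept 40 min at room temperature. Activity was attenuation of the FLIPR Tetra signal induced by 100 μM veratridine (final).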

Data set [5] concerns sodium current in DRG neurons. The note with it: co-applied with 1 μM capsaicin; whole-cell voltage clamp; read-out: in vitro apparent affinity (IC50) for blocking sodium current in DRG neurons; cited from earlier work.
For data set [6], the target named is T1, human Nav1.5 sodium channel (Homo sapiens, UniProt Q14524).
T1 construct: host or cells: HEK-293
T1 sequence (Q14524 whole entry): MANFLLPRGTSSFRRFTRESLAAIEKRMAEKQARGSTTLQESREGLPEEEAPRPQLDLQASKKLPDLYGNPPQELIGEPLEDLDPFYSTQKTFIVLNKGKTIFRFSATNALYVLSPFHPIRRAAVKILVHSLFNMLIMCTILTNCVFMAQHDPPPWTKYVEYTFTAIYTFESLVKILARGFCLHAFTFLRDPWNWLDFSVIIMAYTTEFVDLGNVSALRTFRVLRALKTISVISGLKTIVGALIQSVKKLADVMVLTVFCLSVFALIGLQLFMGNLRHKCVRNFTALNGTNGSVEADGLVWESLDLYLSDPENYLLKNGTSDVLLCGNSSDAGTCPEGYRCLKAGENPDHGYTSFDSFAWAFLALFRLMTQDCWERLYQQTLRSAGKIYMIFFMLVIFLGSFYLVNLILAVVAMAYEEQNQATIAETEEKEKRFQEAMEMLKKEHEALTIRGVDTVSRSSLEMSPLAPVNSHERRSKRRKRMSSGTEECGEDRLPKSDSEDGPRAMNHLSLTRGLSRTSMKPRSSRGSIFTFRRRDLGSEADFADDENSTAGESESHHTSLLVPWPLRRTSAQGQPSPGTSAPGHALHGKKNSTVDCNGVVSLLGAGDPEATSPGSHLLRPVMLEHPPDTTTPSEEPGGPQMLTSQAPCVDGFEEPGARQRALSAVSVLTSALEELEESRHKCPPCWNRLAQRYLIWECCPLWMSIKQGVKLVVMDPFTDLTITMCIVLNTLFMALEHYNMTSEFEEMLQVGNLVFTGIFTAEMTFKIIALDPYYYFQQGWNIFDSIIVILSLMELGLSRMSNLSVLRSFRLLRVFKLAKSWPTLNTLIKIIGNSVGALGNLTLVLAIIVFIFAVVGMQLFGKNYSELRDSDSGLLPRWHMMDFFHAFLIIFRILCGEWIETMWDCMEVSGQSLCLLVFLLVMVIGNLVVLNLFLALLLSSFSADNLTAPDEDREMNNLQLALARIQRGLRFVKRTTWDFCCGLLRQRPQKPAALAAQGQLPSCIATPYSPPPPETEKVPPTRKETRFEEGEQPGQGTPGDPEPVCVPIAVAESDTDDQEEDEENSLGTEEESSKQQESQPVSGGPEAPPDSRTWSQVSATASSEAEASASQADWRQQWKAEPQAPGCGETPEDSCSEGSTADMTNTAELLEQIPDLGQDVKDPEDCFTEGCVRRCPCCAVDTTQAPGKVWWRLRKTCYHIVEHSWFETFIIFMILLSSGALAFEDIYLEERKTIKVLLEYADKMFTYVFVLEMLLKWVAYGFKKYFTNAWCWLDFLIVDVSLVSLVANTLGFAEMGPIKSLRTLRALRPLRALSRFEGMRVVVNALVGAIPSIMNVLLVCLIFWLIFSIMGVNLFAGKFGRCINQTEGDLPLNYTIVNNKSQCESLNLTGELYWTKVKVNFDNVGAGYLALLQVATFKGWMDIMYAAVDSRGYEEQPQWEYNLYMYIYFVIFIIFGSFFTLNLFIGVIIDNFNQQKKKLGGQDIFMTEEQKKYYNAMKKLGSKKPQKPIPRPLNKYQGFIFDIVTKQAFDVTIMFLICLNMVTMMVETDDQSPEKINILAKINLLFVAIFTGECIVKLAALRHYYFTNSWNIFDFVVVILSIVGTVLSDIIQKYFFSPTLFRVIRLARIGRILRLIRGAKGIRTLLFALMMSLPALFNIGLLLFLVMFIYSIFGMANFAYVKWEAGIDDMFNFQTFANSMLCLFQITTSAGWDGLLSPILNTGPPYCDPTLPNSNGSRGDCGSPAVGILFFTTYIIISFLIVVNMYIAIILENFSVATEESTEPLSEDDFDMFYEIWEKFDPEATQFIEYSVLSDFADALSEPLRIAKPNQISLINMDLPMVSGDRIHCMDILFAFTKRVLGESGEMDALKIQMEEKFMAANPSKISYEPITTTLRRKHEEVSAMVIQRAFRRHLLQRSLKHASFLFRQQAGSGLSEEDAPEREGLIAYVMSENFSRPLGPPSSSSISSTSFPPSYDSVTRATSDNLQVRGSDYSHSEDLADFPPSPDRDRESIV
The data set can be described thus: Inhibition of sodium channel response in hNav1.5-HEK293 cells (FLIPR, veratridine). Type of data set: cell-based. The note with it: for IC50: average, read-out: HEK Nav 1.5 IC50 (μM) (AVG); for inhibition at 10 min, 0.5 mM / inhibition at 10 min, 1.5 mM: human, HEK-293 cells expressing human Nav1.5 (hNav1.5-HEK-293), pH 7.4; for inhibition at 10 min, 0.5 mM: read-out: HEK Nav 1.5 % inh. @ 0.5 mM; for inhibition at 10 min, 1.5 mM: read-out: HEK Nav 1.5 % inh. @ 1.5 mM. On the procedure:
C. Method for Assessing the Extent of Inhibition of Sodium Channel Response with Compounds in hNav1.5-HEK293 Cells.
The following assay was used to assess the tendency of the test compounds to block the dominant cardiac sodium channel isoform. Nav1.5 sodium channels are known to be permeable to quaternary sodium channel blockers such as QX-314 and, thus, the assay was performed in the absence of a chemical TRPV1 agonist.
The hNav1.5-HEK-293 cells (CreaCell, France, a human embryonic kidney cell line expressing the human Nav1.5 sodium channel) were cultured in Growth medium (containing 1×DMEM (Gibco)+10% FBS (PAA Gold)+2% Glutamine 100 mM (Gibco)+1% penicillin 10,000 U/mL streptomycin 10,000 μg/mL (Invitrogen)+1.2 mg/mL Geneticin G418 (Invitrogen)) in […] cell bind flasks (Corning). The following steps were followed exactly as mentioned. The spent medium was discarded and the cells rinsed once with PBS-1×. Accutase® (1-2 mL; PAA) solution was added. The plate was placed on a 37° C. warming incubator 3-5 minutes. As soon as cells are detached, 37° C. complete medium (9 mL) was added. The cell suspension was drawn into a sterile pipette and cells homogenized gently to dissociate cell aggregates. The cells were counted using a hemocytometer with Blue Trypan and then centrifuged 5 minutes at 400 g. The cells can be amplified or maintained by seeding […] in a T75 flask (final volume: 15 mL). 8000 cells in 50 μL Growth medium was added to each well of 384-well, clear bottomed, sterile poly-D-lysine coated plates with lid (Greiner-bio one) inside the laminar air-flow. The plates were incubated at 37° C. and 5% CO2 in a CO2 incubator (Thermo) for 48 hours.
On the day of the assay, cells were washed with Assay buffer, which was prepared using the components and amounts in Table 4. The pH was adjusted to 7.4 with NaOH, volume made up to 500 mL with Milli-Q® water.
Assay Buffer was added to the cells and incubated at rt (25° C.) for 10 minutes. The compounds were diluted in assay buffer. The compounds were added and incubated at rt (25° C.) for 10 minutes. Red FMP Dye (MDC) was added to the cells and the plate was incubated at rt (25° C.) for 30 minutes. Veratridine stock (20 mM; Sigma) was prepared in DMSO; veratridine (final concentration of 30 μM) in assay buffer was added to each well of the cell seeded plates in the FLIPR® system and read taken for 10 minutes. Table 5 provides data illustrating the sodium channel activity of the test compounds in response to the presence or absence of heat stimulation in cells expressing hTRPV1. The compounds were tested for differential activity at 25° C. and 47° C. and at two test concentrations. Compounds showing the most promising profiles were further evaluated for IC50 in the 47° C. assay, examples are shown in Table 5.

[7] abbreviates: test compound 0.5%, lidocaine 0%, total injection 100 μL.
Where [8] appears, read: test compound 0.5%, lidocaine 0%, total injection 200 μL.
Setting [9] is: test compound 0.5%, lidocaine 2%, total injection 100 μL.
Setting [10] is: test compound 0.5%, lidocaine 2%, total injection 200 μL.

Read-outs that look alike come from different tables or passages of the source.

As to `Cc1ccccc1N(CC[C@H]1CCCC[N+]1(C)C)C1Cc2ccccc2C1.[Br-]` [Example 43, (R)-2-[2-(Indan-2-yl-o-tolyl-amino)-ethyl]-1,1-dimethyl-piperidinium bromide], the “Average Time of Analgesia” value in data set [1] (test compound 0.2%, lidocaine 2%, total injection 200 μL) worked out at 28 h. Moreover, in the data set with rats [2] (100 μL sub-cutaneous injection, 0.2%, with lidocaine 2% vs alone), the “duration of analgesia, combination with lidocaine compared to compound alone” value is on record as “extended duration of analgesia”. In addition, the “duration of marked motor deficit post injection” value in the data set with rats [3] (unilateral peri-sciatic injection) turned out to be 2 h. Besides, the “time of gradual return of foot print score to normal” value in the data set with rats [3] (remaining hours of assessment after the first 6 hours) is around 20 h. Besides, the “hTRPV1-N1E Nav 0.1 mM (% inhibition) 25° C.” value in data set [4] (0.1 mM) is 93.9%. Besides, in data set [4] (class symbols), the IC50 – broadly, the concentration that inhibits the measured activity by half – is 1 to 10 µM.

On to `CC[N+](CC)(CC)CC(=O)Nc1c(C)cccc1C` [QX-314, reference compound], for which the “Average Time of Analgesia” value in data set [1] (setting [7]) amounted to 2 h; in data set [1] (setting [8]), 2 h; in data set [1] (setting [9]) it was 6 h; in data set [1] (setting [10]) it was 9 h. Besides, the IC50 in data set [5] is 30 µM.

Regarding `CCN(CC)CC(=O)Nc1c(C)cccc1C` [lidocaine], in the data set on rats [2] (100 μL lidocaine (2%) alone, sub-cutaneous), the “time of return of analgesia to baseline” value was “around 2 hours”. The “analgesia (% maximal possible effect) reached” value with rats [2] (100 μL lidocaine (2%) alone, sub-cutaneous, for around 0.5 hours post injection) was 100%.

Take `CC[N+]1(CC)CCCC[C@@H]1CCN(c1ccccc1)C1Cc2ccccc2C1.[I-]` [Example 11, (R)-1,1-Diethyl-2-[2-((indan-2-yl)(phenyl)amino)ethyl]piperidinium iodide]: in data set [1] (setting [9]), the “Average Time of Analgesia” value is 7 h. Also, in data set [6], the IC50 was 44 µM; the inhibition at 10 min, 0.5 mM was determined as 97.9%; the inhibition at 10 min, 1.5 mM is 97.8%. Besides, the “hTRPV1-N1E Nav 0.1 mM (% inhibition) 25° C.” value in data set [4] (0.1 mM) was 0%. Further, the “hTRPV1-N1E Nav 0.1 mM (% inhibition) 47° C.” value in data set [4] (0.1 mM, 47° C. (heat activation of hTRPV1)) was determined as 72%. In data set [4], the “hTRPV1-N1E Nav 1 mM (% inhibition) 25° C.” value is 71 (N = 2) %. Moreover, the IC50 in data set [4] (class symbols) lay in the range of 10 to 100 µM.

For the compound `CC[N+]1(CC)CCCC[C@H]1CCN(c1ccccc1)C1Cc2ccccc2C1.[I-]` [Example 2, (S)-1,1-diethyl-2-[2-((indan-2-yl)(phenyl)amino)ethyl]piperidinium iodide], the “Average Time of Analgesia” value in data set [1] (setting [7]) is given as 0 h; in data set [1] (setting [8]), 4 h; in data set [1] (setting [9]), 10 h; in data set [1] (setting [10]), above 14 h. Further, the IC50 in data set [6] amounted to 247 µM; in data set [4] (numeric values), 9 µM. Moreover, the inhibition at 10 min, 0.5 mM in data set [6] came out at 89.2%. Further, the inhibition at 10 min, 1.5 mM in data set [6] came to 98.1%. Moreover, the “hTRPV1-N1E Nav (% inhibition) 25° C., tested at 0.5 mM” value in data set [4] is on record as 44%. Besides, in data set [4], the “hTRPV1-N1E Nav (% inhibition) 47° C., tested at 0.5 mM” value was 89 (N = 2, 0.5 mM) %. Further, the “hTRPV1-N1E Nav 1 mM (% inhibition) 25° C.” value in data set [4] is on record as 50 (N = 2) %.

As for `C[N+]1(C)CCCC[C@H]1CCN(c1ccccc1)C1Cc2ccccc2C1.[I-]` [Example 9, (S)-1,1-Dimethyl-2-[2-((indan-2-yl)(phenyl)amino)ethyl]piperidinium iodide], the “Average Time of Analgesia” value in data set [1] (setting [9]) is on record as 5 h. Moreover, in data set [6], the IC50 was found to be 647 µM; the inhibition at 10 min, 0.5 mM was 72.4%; the inhibition at 10 min, 1.5 mM was determined as 97.2%. For the same compound, in data set [4], the “hTRPV1-N1E Nav (% inhibition) 25° C., tested at 0.5 mM” value is 16% and the “hTRPV1-N1E Nav (% inhibition) 47° C., tested at 0.5 mM” value is recorded as 77 (N = 2, 0.5 mM) %. Also, in data set [4] (class symbols), the IC50 lay within 10 to 100 µM.

(Values after US8865741B2, “Aminoindane compounds and use thereof in treating pain” (Asana Biosciences, LLC, priority 2011, dated 2014).)
